Tests used:
Type in all cases: biochemical
RSK3 = target: T1, RSK3 (Homo sapiens, UniProt Q15349); assay: mobility shift assay
T1 construct: purchased Carna Biosciences

PKD2 = target: T2, PKD2 (Homo sapiens, UniProt Q9BZL6); assay: mobility shift assay
T2 construct: purchased Carna Biosciences

FGR3(K650E) = target: T3, FGR3(K650E) (Homo sapiens, UniProt P22607, K650E); assay: mobility shift assay
T3 construct: purchased Carna Biosciences

KIT(V560G) = target: T4, KIT(V560G) (Homo sapiens, UniProt P10721, V560G); assay: mobility shift assay
T4 construct: purchased Carna Biosciences

MAPXK2 Cascade = assay: mobility shift assay; settings: 10 μM
PIK3α (PIK3CA/PIK3R1) = PIK3α (PIK3CA/PIK3R1) (Homo sapiens, UniProt P42336); assay: IC50 by mobility shift assay; settings: Table 2, mobility shift assay; read-out: IC50 (μM), Kinase PIK3CA/PIK3RI
Procedure: The compounds obtained in Production Examples described above were each measured for its IC50 value for PIK3α (PIK3CA/PIK3R1) by mobility shift assay. The mobility shift assay is a method involving separating and quantifying a substrate and a phosphorylated substrate on the basis of mobility in a capillary. Each compound was mixed at various concentrations with an assay buffer (20 mM HEPES, 2 mM DTT, 25 μM sodium cholate, 75 mM NaCl, 20 μM cantharidine) together with 21 nM PI3K, 1,000 nM phosphatidyl inositol, 50 μM ATP, and 5 mM MgCl, and the mixture was subjected to a reaction at room temperature for 5 hours, followed by the mobility shift assay. The test was repeated twice. The enzymatic reaction was assessed on the basis of a product ratio (P/(P+S)) calculated from the height of a substrate peptide peak (S) and the height of a phosphorylated peptide peak (P). An inhibition rate was calculated from a signal obtained when each compound was added, with the average signal of a control containing all reaction components being defined as 0% inhibition and the average signal of a background (no enzyme added) being defined as 100% inhibition.
The compounds produced in Production Examples described above were each assessed for its inhibitory activity against CDK7, PIM2, and PI3K by mobility shift assay. In addition, a combination showing the highest inhibitory activity against each kinase is indicated by italics.

NEK2 = target: T5, NEK2 (Homo sapiens, UniProt P51955); assay: mobility shift assay
T5 construct: purchased Carna Biosciences
T5 sequence (P51955 whole entry): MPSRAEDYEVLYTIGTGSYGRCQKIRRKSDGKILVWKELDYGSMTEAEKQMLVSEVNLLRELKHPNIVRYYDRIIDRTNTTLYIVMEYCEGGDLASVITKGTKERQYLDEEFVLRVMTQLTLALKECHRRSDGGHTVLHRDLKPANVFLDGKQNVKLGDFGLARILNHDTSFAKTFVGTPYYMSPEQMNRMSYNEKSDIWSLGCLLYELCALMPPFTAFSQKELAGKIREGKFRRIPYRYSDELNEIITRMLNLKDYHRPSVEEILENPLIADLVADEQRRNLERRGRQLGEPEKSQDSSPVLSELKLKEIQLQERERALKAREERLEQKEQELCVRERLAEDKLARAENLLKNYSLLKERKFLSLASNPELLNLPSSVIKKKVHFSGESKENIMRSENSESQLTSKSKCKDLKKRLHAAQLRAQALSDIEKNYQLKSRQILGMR

WNK2 = target: T6, WNK2 (Homo sapiens, UniProt Q9Y3S1); assay: mobility shift assay
T6 construct: purchased Carna Biosciences

JAK2 = target: T7, JAK2 (Homo sapiens, UniProt O60674); assay: mobility shift assay
T7 construct: purchased Carna Biosciences

FGFR1 = target: T8, FGFR1 (Homo sapiens, UniProt P11362); assay: mobility shift assay
T8 construct: purchased Carna Biosciences

NDR1 = target: T9, NDR1 (Homo sapiens, UniProt Q15208); assay: mobility shift assay
T9 construct: purchased Carna Biosciences

MLK1_Cascade = target: T10, MLK1_Cascade (Homo sapiens, UniProt P80192); assay: mobility shift assay
T10 construct: purchased Carna Biosciences

FES = target: T11, FES (Homo sapiens, UniProt P07332); assay: mobility shift assay
T11 construct: purchased Carna Biosciences

AMPKα1/β1/γ1 = target: T12, AMPKα1/β1/γ1 (Homo sapiens, UniProt Q13131); assay: mobility shift assay
T12 construct: purchased Carna Biosciences

PLK2 = target: T13, PLK2 (Homo sapiens, UniProt Q9NYY3); assay: IMAP Assay
T13 construct: purchased Carna Biosciences

RET = target: T14, RET (Homo sapiens, UniProt P07949); assay: mobility shift assay
T14 construct: purchased Carna Biosciences
T14 sequence (P07949 29-1114): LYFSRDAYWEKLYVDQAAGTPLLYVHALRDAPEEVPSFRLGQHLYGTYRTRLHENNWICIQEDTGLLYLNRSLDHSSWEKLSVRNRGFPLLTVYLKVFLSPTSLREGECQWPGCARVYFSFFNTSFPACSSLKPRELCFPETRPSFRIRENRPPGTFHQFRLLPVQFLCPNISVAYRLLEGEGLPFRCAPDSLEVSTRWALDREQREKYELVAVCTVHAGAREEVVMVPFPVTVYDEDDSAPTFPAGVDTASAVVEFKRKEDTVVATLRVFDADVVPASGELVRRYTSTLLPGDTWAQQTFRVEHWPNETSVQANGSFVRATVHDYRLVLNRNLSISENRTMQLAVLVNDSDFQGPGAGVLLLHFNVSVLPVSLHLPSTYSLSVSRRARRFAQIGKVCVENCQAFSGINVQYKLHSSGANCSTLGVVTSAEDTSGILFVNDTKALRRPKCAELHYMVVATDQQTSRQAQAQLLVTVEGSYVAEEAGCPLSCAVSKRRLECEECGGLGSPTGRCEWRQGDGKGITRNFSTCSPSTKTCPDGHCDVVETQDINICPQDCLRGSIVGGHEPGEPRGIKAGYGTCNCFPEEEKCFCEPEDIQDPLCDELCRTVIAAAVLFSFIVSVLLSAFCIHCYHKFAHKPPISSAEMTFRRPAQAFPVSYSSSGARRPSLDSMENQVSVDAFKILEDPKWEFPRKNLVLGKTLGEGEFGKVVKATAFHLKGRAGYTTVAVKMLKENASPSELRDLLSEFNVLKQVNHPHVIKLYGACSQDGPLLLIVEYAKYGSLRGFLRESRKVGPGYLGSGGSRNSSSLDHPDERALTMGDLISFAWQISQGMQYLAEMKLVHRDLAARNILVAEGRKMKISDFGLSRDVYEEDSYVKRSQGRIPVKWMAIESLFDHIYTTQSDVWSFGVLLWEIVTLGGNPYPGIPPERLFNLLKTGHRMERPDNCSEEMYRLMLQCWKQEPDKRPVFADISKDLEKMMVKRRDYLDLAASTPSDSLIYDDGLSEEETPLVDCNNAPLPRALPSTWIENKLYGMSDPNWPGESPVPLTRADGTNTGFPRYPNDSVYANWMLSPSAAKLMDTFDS

CaMK2β = target: T15, CaMK2β (Homo sapiens, UniProt Q13554); assay: mobility shift assay
T15 construct: purchased Carna Biosciences

TSSK1 = target: T16, TSSK1 (Homo sapiens, UniProt Q9BXA7); assay: mobility shift assay
T16 construct: purchased Carna Biosciences
T16 sequence (Q9BXA7 whole entry): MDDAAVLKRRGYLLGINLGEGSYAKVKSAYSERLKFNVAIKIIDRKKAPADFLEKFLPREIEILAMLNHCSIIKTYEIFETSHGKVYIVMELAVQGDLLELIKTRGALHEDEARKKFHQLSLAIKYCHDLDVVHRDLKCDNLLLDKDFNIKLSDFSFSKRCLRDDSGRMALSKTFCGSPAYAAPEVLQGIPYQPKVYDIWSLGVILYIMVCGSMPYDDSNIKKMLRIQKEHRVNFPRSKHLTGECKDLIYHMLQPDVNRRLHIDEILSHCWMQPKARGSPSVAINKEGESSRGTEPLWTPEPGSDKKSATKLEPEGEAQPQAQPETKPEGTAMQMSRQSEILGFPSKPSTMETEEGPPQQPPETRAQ

MAPKAPK3 = target: T17, MAPKAPK3 (Homo sapiens, UniProt Q16644); assay: mobility shift assay
T17 construct: purchased Carna Biosciences
T17 sequence (Q16644 whole entry): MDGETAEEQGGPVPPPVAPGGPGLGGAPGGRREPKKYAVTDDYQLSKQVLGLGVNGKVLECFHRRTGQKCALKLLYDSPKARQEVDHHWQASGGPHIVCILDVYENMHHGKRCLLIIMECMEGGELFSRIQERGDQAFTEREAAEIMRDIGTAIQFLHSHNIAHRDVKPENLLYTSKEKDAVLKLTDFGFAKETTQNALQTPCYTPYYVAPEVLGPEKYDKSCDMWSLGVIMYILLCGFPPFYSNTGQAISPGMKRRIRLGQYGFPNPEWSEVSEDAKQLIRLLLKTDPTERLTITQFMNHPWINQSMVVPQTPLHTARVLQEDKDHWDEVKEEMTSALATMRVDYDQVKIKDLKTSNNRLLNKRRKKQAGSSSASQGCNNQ

AXL = target: T18, AXL (Homo sapiens, UniProt P30530); assay: mobility shift assay
T18 construct: purchased Carna Biosciences

MET(D1228H) = target: T19, MET(D1228H) (Homo sapiens, UniProt P08581, D1228H); assay: mobility shift assay
T19 construct: purchased Carna Biosciences

BRK = target: T20, BRK (Homo sapiens, UniProt Q13882); assay: mobility shift assay
T20 construct: purchased Carna Biosciences

PKD3 = target: T21, PKD3 (Homo sapiens, UniProt O94806); assay: mobility shift assay
T21 construct: purchased Carna Biosciences

LTK = target: T22, LTK (Homo sapiens, UniProt P29376); assay: mobility shift assay
T22 construct: purchased Carna Biosciences
T22 sequence (P29376 17-864): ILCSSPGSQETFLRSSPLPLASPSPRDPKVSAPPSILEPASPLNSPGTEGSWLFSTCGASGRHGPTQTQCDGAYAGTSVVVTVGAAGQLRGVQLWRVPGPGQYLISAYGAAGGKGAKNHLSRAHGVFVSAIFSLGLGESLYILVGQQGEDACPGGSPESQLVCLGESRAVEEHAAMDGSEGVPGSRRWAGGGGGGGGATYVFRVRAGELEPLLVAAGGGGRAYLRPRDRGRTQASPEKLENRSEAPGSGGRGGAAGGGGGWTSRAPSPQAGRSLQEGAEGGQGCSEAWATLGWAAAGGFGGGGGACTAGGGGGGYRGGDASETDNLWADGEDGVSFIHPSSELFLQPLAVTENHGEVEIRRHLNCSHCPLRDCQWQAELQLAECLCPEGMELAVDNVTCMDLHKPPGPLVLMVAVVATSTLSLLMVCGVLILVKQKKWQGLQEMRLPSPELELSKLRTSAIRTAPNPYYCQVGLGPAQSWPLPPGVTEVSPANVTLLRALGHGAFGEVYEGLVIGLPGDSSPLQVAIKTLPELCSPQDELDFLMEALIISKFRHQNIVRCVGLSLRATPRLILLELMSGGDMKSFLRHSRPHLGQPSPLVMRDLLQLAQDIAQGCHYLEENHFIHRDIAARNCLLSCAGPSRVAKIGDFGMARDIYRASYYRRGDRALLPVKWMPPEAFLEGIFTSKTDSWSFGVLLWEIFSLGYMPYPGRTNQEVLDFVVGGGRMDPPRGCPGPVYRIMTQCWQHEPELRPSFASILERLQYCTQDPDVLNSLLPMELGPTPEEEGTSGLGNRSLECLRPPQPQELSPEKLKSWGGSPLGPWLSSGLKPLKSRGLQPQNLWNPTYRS

PKCγ = target: T23, PKCγ (Homo sapiens, UniProt P05129); assay: mobility shift assay
T23 construct: purchased Carna Biosciences

EGFR(L858R) = target: T24, EGFR(L858R) (Homo sapiens, UniProt P00533, L858R); assay: mobility shift assay
T24 construct: purchased Carna Biosciences

AurC = target: T25, AurC (Homo sapiens, UniProt Q9UQB9); assay: mobility shift assay
T25 construct: purchased Carna Biosciences
T25 sequence (Q9UQB9 whole entry): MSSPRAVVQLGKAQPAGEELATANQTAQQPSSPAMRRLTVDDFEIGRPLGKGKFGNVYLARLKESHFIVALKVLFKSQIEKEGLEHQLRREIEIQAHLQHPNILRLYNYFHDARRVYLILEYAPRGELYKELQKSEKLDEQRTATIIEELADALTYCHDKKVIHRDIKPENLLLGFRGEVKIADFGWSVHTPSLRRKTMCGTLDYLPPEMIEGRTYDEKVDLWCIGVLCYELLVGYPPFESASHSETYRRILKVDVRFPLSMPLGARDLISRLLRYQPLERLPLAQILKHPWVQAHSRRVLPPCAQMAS

CaMK4 = target: T26, CaMK4 (Homo sapiens, UniProt Q16566); assay: mobility shift assay
T26 construct: purchased Carna Biosciences

CDK4/CycD3 = CDK4/CycD3 (Homo sapiens, UniProt P11802); assay: IC50 by mobility shift assay; settings: Table 3, CDK4, mobility shift assay; read-out: IC50 (μM), Kinase CDK4/CycD3
Source text: Next, the compounds produced in Production Examples described above were each assessed for its inhibitory activity against CDK4 by mobility shift assay. In addition, a combination showing the highest inhibitory activity is indicated by italics.

AMFKα2/β1/γ1 = target: T27, AMFKα2/β1/γ1 (Homo sapiens, UniProt P54646); assay: mobility shift assay
T27 construct: purchased Carna Biosciences
T27 sequence (P54646 whole entry): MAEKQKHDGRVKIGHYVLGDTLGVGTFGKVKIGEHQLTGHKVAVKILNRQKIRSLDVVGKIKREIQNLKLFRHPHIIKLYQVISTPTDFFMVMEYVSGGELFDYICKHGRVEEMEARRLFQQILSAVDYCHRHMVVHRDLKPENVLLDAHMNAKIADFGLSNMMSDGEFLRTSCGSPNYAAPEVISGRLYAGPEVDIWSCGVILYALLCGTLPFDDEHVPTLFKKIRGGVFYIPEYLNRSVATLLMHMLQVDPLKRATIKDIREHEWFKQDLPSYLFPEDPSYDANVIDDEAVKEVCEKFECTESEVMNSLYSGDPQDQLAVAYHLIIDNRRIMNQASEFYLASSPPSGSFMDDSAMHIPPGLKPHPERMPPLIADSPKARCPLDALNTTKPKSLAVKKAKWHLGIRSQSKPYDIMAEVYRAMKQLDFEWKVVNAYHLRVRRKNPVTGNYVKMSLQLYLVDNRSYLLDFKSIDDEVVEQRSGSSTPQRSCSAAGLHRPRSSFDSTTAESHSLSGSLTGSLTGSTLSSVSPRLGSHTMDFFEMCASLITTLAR
T27 sequence (Q9Y478 whole entry partner): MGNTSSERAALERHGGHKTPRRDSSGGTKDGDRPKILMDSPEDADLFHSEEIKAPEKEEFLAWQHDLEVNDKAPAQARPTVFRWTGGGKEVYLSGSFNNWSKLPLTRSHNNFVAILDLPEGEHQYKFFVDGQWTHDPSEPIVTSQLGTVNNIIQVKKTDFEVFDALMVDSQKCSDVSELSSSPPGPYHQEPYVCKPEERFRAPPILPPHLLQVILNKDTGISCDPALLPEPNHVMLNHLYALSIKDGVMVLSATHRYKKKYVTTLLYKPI
T27 sequence (P54619 whole entry partner): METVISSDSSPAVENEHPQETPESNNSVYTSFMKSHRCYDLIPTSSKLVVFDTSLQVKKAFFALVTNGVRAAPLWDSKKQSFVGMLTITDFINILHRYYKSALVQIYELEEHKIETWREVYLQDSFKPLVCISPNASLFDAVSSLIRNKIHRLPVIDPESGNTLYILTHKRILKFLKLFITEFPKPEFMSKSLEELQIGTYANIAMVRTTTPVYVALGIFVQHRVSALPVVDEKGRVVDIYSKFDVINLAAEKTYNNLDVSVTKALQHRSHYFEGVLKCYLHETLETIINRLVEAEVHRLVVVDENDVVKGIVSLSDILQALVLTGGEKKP

PDGFRα = target: T28, PDGFRα (Homo sapiens, UniProt P16234); assay: mobility shift assay
T28 construct: purchased Carna Biosciences

CDC7/ASK = target: T29, CDC7/ASK (Homo sapiens, UniProt O00311); assay: mobility shift assay
T29 construct: purchased Carna Biosciences

Compound `C[C@@H]1CC[C@H]2C(C)(C)CCC[C@]2(C)c2c1oc1c(C=O)c(O)c(O)cc21` [LG-1, liphagal] has an inhibition at 10 µM (RSK3) of 8.1%, an inhibition at 10 µM (PKD2) of 2.8% and an inhibition at 10 µM (FGR3(K650E)) of -8.4%. For the same compound, the inhibition at 10 µM (KIT(V560G)) was 17.9%, the “% Inhibition” value (MAPXK2 Cascade) was 2.7% and the IC50 (PIK3α (PIK3CA/PIK3R1)) was 4.12 µM. The inhibition at 10 µM (NEK2) was 3.5%, the inhibition at 10 µM (WNK2) was 20.7% and the inhibition at 10 µM (JAK2) was -0.7%. It also gave an inhibition at 10 µM (FGFR1) of -2.3%, an inhibition at 10 µM (NDR1) of 2.6% and an inhibition at 10 µM (MLK1_Cascade) of 16.3%. The inhibition at 10 µM (FES) was 23.4%, the inhibition at 10 µM (AMPKα1/β1/γ1) was 19.9% and the inhibition at 10 µM (PLK2) was 19.7%. For the same compound, the inhibition at 10 µM (RET) was 10.6%, the inhibition at 10 µM (CaMK2β) was 1.9% and the inhibition at 10 µM (TSSK1) was 4.1%. It also gave an inhibition at 10 µM (MAPKAPK3) of 4.8%, an inhibition at 10 µM (AXL) of -4.2% and an inhibition at 10 µM (MET(D1228H)) of 2.9%. It also gave an inhibition at 10 µM (BRK) of 52.5%, an inhibition at 10 µM (PKD3) of 2.7% and an inhibition at 10 µM (LTK) of 1.8%. For the same compound, the inhibition at 10 µM (PKCγ) was -1.9%, the inhibition at 10 µM (EGFR(L858R)) was 4.2% and the inhibition at 10 µM (AurC) was 36.3%. It also gave an inhibition at 10 µM (CaMK4) of 51.4%, an IC50 (CDK4/CycD3) of 19.9 µM and an inhibition at 10 µM (AMFKα2/β1/γ1) of 44.1%. The inhibition at 10 µM (PDGFRα) was 8.2% and the inhibition at 10 µM (CDC7/ASK) was 26.2%.

Reference: patent publication US11691980B2, “Liphagal analog and multi-targeted kinase inhibitor containing liphagal or analog thereof” (TOHOKU UNIVERSITY, priority 2017, dated 2023)
